In patent US4061607A, “Somatostatin analogs and intermediates thereto” (Eli Lilly and Company, priority 1976, dated 1977):
Positions of bridges follow the written chain, without caps; N, C: chain ends. Non-standard residues stand in square brackets, D forms with d. Residues, ends and D or L forms follow the SMILES beside them. Cha = N[C@@H](CC1CCCCC1)C(=O)O

What was measured:
[1] = test system: gastric HCl secretion; test: in vivo inhibition of gastric acid secretion in dogs with chronic fistula and Heidenhain pouch; details: for effect equivalent to that dose of somatostatin: extrapolated against the dose-response curve of somatostatin, test compound 3 μg/kg-hr.; for activity relative to that of somatostatin: gastric acid secretion in dogs, relative potency expressed as percent activity
Procedure: D-Phe^11 -somatostatin and L-Cha^11 -somatostatin also were tested in dogs for their in vivo inhibition of gastric acid secretion. In six dogs with chronic fistula and Heidenhain pouch, gastric HCl secretion was induced by infusion of the C-terminal tetrapeptide of gastrin at 0.5 μg/kg-hr. One dog served as control, receiving only the tetrapeptide. Another dog received the tetrapeptide and somatostatin while the test compound was administered to the remaining dogs in place of somatostatin. After one hour of steady state secretion of HCl, somatostatin or the test compound was infused at 3 μg/kg-hr. for one hour. Collection of gastric acid samples was continued for an additional 1.5 hours at 15 minute intervals. The samples were titrated to pH 7 with an automatic titrator. The maximal inhibitory effect of the test compounds was extrapolated against the dose-response curve of somatostatin, and the relative potency of the analogs to that of somatostatin is expressed as percent activity. […] This effect is equivalent to that of 0.086 μg/kg-hr. of somatostatin. Its activity relative to that of somatostatin thus is 2.87%. […] This effect is equivalent to that of 0.0825 μg/kg-hr. of somatostatin. Its activity relative to that of somatostatin therefore is 2.7%.

[2] = test system: release of growth hormone; test: release of growth hormone in pentobarbital-stimulated rats; type: in vivo, Spraque-Dawley rats; details: 50 μg./rat subcutaneously, sodium pentobarbital stimulated, somatostatin comparator run in each set
Procedure: D-Phe^11 -somatostatin, L-Cha^11 -somatostatin, and L-Leu^11 -somatostatin also were tested for their activity with respect to the release of growth hormone. The procedure which was employed is carried out using mature male Spraque-Dawley rats (Laboratory Supply Company, Indianapolis, Indiana). The test is a modification of the method of P. Brazeau, W. Vale, and R. Guilleman, Endocrinology, 94 184 (1974). In each assay, a set comprising three groups of eight rats each was employed. First, sodium pentobarbital was administered to all of the rats of the particular set to stimulate growth hormone secretion. In each set, one group served as control group and received only saline. A second group received somatostatin at 50 μg./rat, subcutaneously. The third group received test compound at 50 μg./rat, subcutaneously. The degree of inhibition of serum growth hormone concentration then was determined with respect to the control group, and the relative activities of test compound and somatostatin itself were compared.

[3] = test system: glucagon secretion; test: in vivo inhibition of glucagon secretion upon stimulation with L-alanine; parameters: species or system mongrel dogs; details: dogs, intravenous infusion; for effect on the increase in serum glucagon concentration produced by infusion of L-alanine: D-Phe11 0.211, L-Cha11 0.235, L-Leu11 0.195 μg/kg/min., L-alanine 1 mmol/kg; for effect on basal serum glucagon concentration: L-Cha11 0.235, L-Leu11 0.195 μg/kg/min.
Procedure: (§1) The tetradecapeptides were tested for their in vivo activity in inhibiting glucagon and insulin secretion upon stimulation with L-alanine. Normal mongrel dogs of either sex were fasted overnight. Control blood samples were obtained, and then an intravenous infusion of saline, somatostatin, or test compound was started. After 30 minutes, L-alanine additionally was administered intravenously for a period of 15 minutes. The infusion of saline, somatostatin, or test compound was continued for 15 minutes after completion of the alanine infusion. The total dose of somatostatin or test compound which was infused is 200-500 μg/dog (about 0.20-0.30 μg/kg./minute), and the total dose of L-alanine infused was 1 mmol/kg. The infusion of L-alanine produced an abrupt increase in the serum concentration of glucagon and insulin. This returned to control concentration when the alanine infusion was discontinued.

[4] = test system: insulin secretion; test: in vivo inhibition of insulin secretion upon stimulation with L-alanine; parameters: species or system mongrel dogs; details: for effect on the increase in serum insulin concentration produced by infusion of L-alanine / effect on basal serum insulin concentration: dogs, intravenous infusion; for effect on the increase in serum insulin concentration produced by infusion of L-alanine: D-Phe11 0.211, L-Cha11 0.235, L-Leu11 0.195 μg/kg/min., L-alanine 1 mmol/kg; for effect on basal serum insulin concentration: L-Cha11 0.235, L-Leu11 0.195 μg/kg/min., somatostatin about 0.20-0.30 μg/kg./minute
Procedure: as §1

[5] = test system: glucagon secretion; test: in vivo inhibition of glucagon secretion upon stimulation with insulin; parameters: species or system mongrel dogs; details: dogs, intravenous infusion for two hours; D-Phe11 0.128, L-Cha11 0.130, L-Leu11 0.129 μg/kg/min.; insulin 0.3 units/kg.
Procedure: The tetradecapeptides also were evaluated for in vivo activity in inhibiting glucagon secretion upon stimulation with insulin. Normal mongrel dogs of either sex were fasted overnight. After control blood samples had been obtained, an intravenous infusion of saline, somatostatin, or the test compound was commenced. After 15 minutes, insulin, 0.3 units/kg., was injected intravenously. The infusion of saline, somatostatin, or the test compound was continued for two hours, and blood samples were obtained at various intervals throughout the test. The total dose of the somatostatin or test compound ranged from 120-260 μg./dog (0.07-0.13 μg/kg/min.). Administration of insulin produced a reduction in the blood glucose concentration and an increase in serum glucagon concentration.

SMILES	effect equivalent to that dose of somatostatin [1] [μg/kg-hr.]	activity relative to that of somatostatin [1] [%]	inhibition of the increase in serum growth hormone concentration over control [2] [%]	effect on the increase in serum glucagon concentration produced by infusion of L-alanine [3]	effect on the increase in serum insulin concentration produced by infusion of L-alanine [4]	effect on the increase in serum glucagon concentration produced by insulin administration [5]	effect on basal serum glucagon concentration [3]	effect on basal serum insulin concentration [4]	inhibitory effect upon the pancreatic secretion of insulin ([4]; general statement)
C[C@H](N)C(=O)NCC(=O)N[C@H]1CSSC[C@@H](C(=O)O)NC(=O)[C@H](CO)NC(=O)[C@H]([C@@H](C)O)NC(=O)[C@@H](Cc2ccccc2)NC(=O)[C@H]([C@@H](C)O)NC(=O)[C@H](CCCCN)NC(=O)[C@H](Cc2c[nH]c3ccccc23)NC(=O)[C@H](Cc2ccccc2)NC(=O)[C@H](Cc2ccccc2)NC(=O)[C@H](CC(N)=O)NC(=O)[C@H](CCCCN)NC1=O [D-Phe^11 -somatostatin]	0.086	2.87	70	did not affect the increase in serum glucagon concentration	did not affect the increase in serum glucagon concentration and serum insulin concentration	none of these compounds inhibited the increase in serum glucagon concentration			
C[C@H](N)C(=O)NCC(=O)N[C@H]1CSSC[C@@H](C(=O)O)NC(=O)[C@H](CO)NC(=O)[C@H]([C@@H](C)O)NC(=O)[C@H](CC2CCCCC2)NC(=O)[C@H]([C@@H](C)O)NC(=O)[C@H](CCCCN)NC(=O)[C@H](Cc2c[nH]c3ccccc23)NC(=O)[C@H](Cc2ccccc2)NC(=O)[C@H](Cc2ccccc2)NC(=O)[C@H](CC(N)=O)NC(=O)[C@H](CCCCN)NC1=O [L-Cha^11 -somatostatin] (H-AGCKNFFWKT[Cha]TSC-OH; disulfide 3-14)	0.0825	2.7	33	did not inhibit the increase in serum concentration of either hormone	did not inhibit the increase in serum concentration of either hormone	none of these compounds inhibited the increase in serum glucagon concentration	caused a decrease in the basal serum concentration of both insulin and glucagon	caused a decrease in the basal serum concentration of both insulin and glucagon	
CC(C)C[C@@H]1NC(=O)[C@H]([C@@H](C)O)NC(=O)[C@H](CCCCN)NC(=O)[C@H](Cc2c[nH]c3ccccc23)NC(=O)[C@H](Cc2ccccc2)NC(=O)[C@H](Cc2ccccc2)NC(=O)[C@H](CC(N)=O)NC(=O)[C@H](CCCCN)NC(=O)[C@@H](NC(=O)CNC(=O)[C@H](C)N)CSSC[C@@H](C(=O)O)NC(=O)[C@H](CO)NC(=O)[C@H]([C@@H](C)O)NC1=O [L-Leu^11 -somatostatin] (H-AGCKNFFWKTLTSC-OH; disulfide 3-14)			22	had no effect on the increase in glucagon concentration produced by L-alanine	caused only a partial inhibition of the increase in insulin secretion	none of these compounds inhibited the increase in serum glucagon concentration	had no affect on the basal serum concentration of either insulin or glucagon	had no affect on the basal serum concentration of either insulin or glucagon	exhibits an inhibitory effect upon the pancreatic secretion of insulin
